Data reported in ChEMBL document CHEMBL1201862, “PubChem BioAssay data set” (2004).
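Method: 48-hour compound exposure of cells in 96-well plates, five concentrations, linear interpolation of endpoints. The concentration for 50% growth inhibition is given as GI50.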 The source made the active and inactive calls. Rule as the data show it: active = GI50 up to about 1.1 µM and inactive = higher. Where a SMILES comes first, the peptide text is derived from it. [ ]: non-standard residue; d: D form. The star is where a group is joined. Phe(4-NO2) = N[CH](Cc1ccc([N+](=O)[O-])cc1)C(=O)O; Cbz = O=C(OCc1ccccc1)*

Experiments:
Assay in all cases: DTP human tumour cell line panel, 48 h
[1] = tested on: HOP-62
[2] = tested on: 786-0
[3] = tested on: MDA-N
[4] = tested on: Malme-3M
[5] = tested on: SNB-19
[6] = tested on: SK-MEL-2
[7] = tested on: KM12
[8] = tested on: OVCAR-5
[9] = tested on: MDA-MB-231
[10] = tested on: ACHN
[11] = tested on: RPMI-8226
[12] = tested on: HCT-15
[13] = tested on: SK-MEL-28
[14] = tested on: UO-31
[15] = tested on: BT-549
[16] = tested on: K562
[17] = tested on: M14
[18] = tested on: OVCAR-3
[19] = tested on: HL-60
[20] = tested on: SF-268

Row | Structure (SMILES) | GI50 [1] | GI50 [2] | GI50 [3] | GI50 [4] | GI50 [5] | GI50 [6] | GI50 [7] | GI50 [8] | GI50 [9] | GI50 [10] | GI50 [11] | GI50 [12] [µM] | GI50 [13] | GI50 [14] | GI50 [15] | GI50 [16] | GI50 [17] | GI50 [18] | GI50 [19] | GI50 [20]
1 | CCOC(=O)CCC(NC(=O)OCc1ccccc1)C(=O)NC(CCC(=O)OCC)C(=O)NC(Cc1ccc([N+](=O)[O-])cc1)C(=O)NC(CCC(=O)OCC)C(=O)NC(CCC(=O)OCC)C(=O)OCC (centres undefined) (Cbz-E(OEt)E(OEt)[Phe(4-NO2)]E(OEt)E(OEt)-OEt; configuration not given here) | > 100 µM (inactive) | > 100 µM (inactive) | > 100 µM (inactive) | > 100 µM (inactive) | > 100 µM (inactive) | > 100 µM (inactive) | > 100 µM (inactive) | > 100 µM (inactive) | > 100 µM (inactive) | > 100 µM (inactive) | > 100 µM (inactive) | > 100 | > 100 µM (inactive) | > 100 µM (inactive) | > 100 µM (inactive) |  |  |  |  | 
2 | C=C1C(=O)C23C(O)CC4C(C)(C)CCC(O)C4(C)C2CC(OC(C)=O)C1[C@H]3O (some centres undefined) | 14.7 µM (inactive) | 2.4 µM (inactive) | 7.87 µM (inactive) | 3.37 µM (inactive) | 8.99 µM (inactive) | 2.55 µM (inactive) | 15.8 µM (inactive) | 9.75 µM (inactive) | 3.27 µM (inactive) | 4.12 µM (inactive) | 0.869 µM (active) | 2.06 | 3.39 µM (inactive) | 15.3 µM (inactive) |  | 1.84 µM (inactive) | 2.82 µM (inactive) | 6.18 µM (inactive) | 1.26 µM (inactive) | 4.49 µM (inactive)
3 | CCSC(=O)/C=C1\CN(C(=O)OC(C)(C)C)C1C(=O)OC(C)(C)C (centres undefined) | 14.1 µM (inactive) | 1.87 µM (inactive) |  | 1.95 µM (inactive) | 12.1 µM (inactive) | 6.59 µM (inactive) | 3.38 µM (inactive) | 6.24 µM (inactive) | 4.29 µM (inactive) | 3.63 µM (inactive) | 1.87 µM (inactive) | 1.52 | 1.86 µM (inactive) | 5.41 µM (inactive) | 10.3 µM (inactive) | 1.91 µM (inactive) | 1.77 µM (inactive) | 2.42 µM (inactive) | 1.87 µM (inactive) | 4.32 µM (inactive)
4 | Oc1c2cc(Cl)cc1COCc1cc(Cl)cc(c1O)COCc1cc(Cl)cc(c1O)COC2 | 19.7 µM (inactive) | 9.42 µM (inactive) |  |  | 28 µM (inactive) | > 100 µM (inactive) | 84.3 µM (inactive) | 40.3 µM (inactive) |  | > 100 µM (inactive) | > 100 µM (inactive) | 36 | > 100 µM (inactive) | 32.6 µM (inactive) | 31.3 µM (inactive) | 67.5 µM (inactive) | 18.7 µM (inactive) | 47.2 µM (inactive) | 2.88 µM (inactive) | 
5 | CN(C)C1(N(C)C)Oc2c(c(=O)n(C)c(=O)n2C)C(c2ccccc2)C1(F)F (centres undefined) | > 100 µM (inactive) | > 100 µM (inactive) |  |  | > 100 µM (inactive) | > 100 µM (inactive) | > 100 µM (inactive) | > 100 µM (inactive) | > 100 µM (inactive) | > 100 µM (inactive) | > 100 µM (inactive) | > 100 | > 100 µM (inactive) | > 100 µM (inactive) | > 100 µM (inactive) | > 100 µM (inactive) | > 100 µM (inactive) | > 100 µM (inactive) |  | > 100 µM (inactive)
6 | CC1=CC2=C(OCO1)C(=O)c1ccccc1C2=O | 6.87 µM (inactive) | 12.8 µM (inactive) | 0.408 µM (active) | 2.51 µM (inactive) | 9.59 µM (inactive) | 0.652 µM (active) | 6.71 µM (inactive) | 6.21 µM (inactive) | 4.13 µM (inactive) | 3.76 µM (inactive) | 4.52 µM (inactive) | 14.8 | 4.86 µM (inactive) | 7.94 µM (inactive) |  | 6.87 µM (inactive) | 4.73 µM (inactive) | 5.4 µM (inactive) | 3.95 µM (inactive) | 7.5 µM (inactive)
7 | N/C(=N\O)N/N=C/c1ccc2c(c1)OCO2 | 26.6 µM (inactive) | 12.9 µM (inactive) | 36.5 µM (inactive) | 17.5 µM (inactive) | 62.7 µM (inactive) | 22 µM (inactive) | 7.55 µM (inactive) | 24.7 µM (inactive) | 38.5 µM (inactive) | 20 µM (inactive) | 21.2 µM (inactive) | 22 | 46 µM (inactive) |  |  | 18.5 µM (inactive) | 13.5 µM (inactive) | 14.2 µM (inactive) | 18.2 µM (inactive) | 13.9 µM (inactive)
8 | COc1ccc2nc3n(c2c1)C(=O)c1ccccc1-3 | > 100 µM (inactive) | > 100 µM (inactive) | > 100 µM (inactive) | > 100 µM (inactive) | > 100 µM (inactive) | > 100 µM (inactive) | > 100 µM (inactive) | > 100 µM (inactive) |  | > 100 µM (inactive) | > 100 µM (inactive) | > 100 | > 100 µM (inactive) | > 100 µM (inactive) | > 10 µM (inactive) | > 100 µM (inactive) | > 100 µM (inactive) | > 100 µM (inactive) | > 100 µM (inactive) | > 100 µM (inactive)
9 | Cc1cc(O)cc(O)c1C(=O)O[C@]1(C)C(=O)C=C2C=C(/C=C/C(=O)O)OC=C2C1=O | > 100 µM (inactive) | > 100 µM (inactive) | > 100 µM (inactive) | 67.3 µM (inactive) | > 100 µM (inactive) | > 100 µM (inactive) | 41.7 µM (inactive) | > 100 µM (inactive) | > 100 µM (inactive) | > 100 µM (inactive) | > 100 µM (inactive) | > 100 | > 100 µM (inactive) | > 100 µM (inactive) |  | > 100 µM (inactive) | > 100 µM (inactive) | > 100 µM (inactive) | 31.9 µM (inactive) | > 100 µM (inactive)
10 | [N-]=[N+]=Nc1c(Cc2ccccc2)c(=O)oc2ccccc12 | 20.7 µM (inactive) | 40.6 µM (inactive) |  | 38.3 µM (inactive) | 27.2 µM (inactive) | 28.1 µM (inactive) |  | 61.9 µM (inactive) | 39.3 µM (inactive) | 38.2 µM (inactive) | 33.2 µM (inactive) | 31 | > 10 µM (inactive) | 36.1 µM (inactive) | 24.5 µM (inactive) | 18.6 µM (inactive) | 25.5 µM (inactive) | 49.5 µM (inactive) | 90.8 µM (inactive) | 25.9 µM (inactive)
11 | CC(CCC(=O)O)(c1ccc(O)cc1)c1ccc(O)cc1 | > 100 µM (inactive) | > 100 µM (inactive) | > 100 µM (inactive) | > 100 µM (inactive) | > 100 µM (inactive) | > 100 µM (inactive) | > 100 µM (inactive) | > 100 µM (inactive) | > 100 µM (inactive) | > 100 µM (inactive) |  | > 100 | > 100 µM (inactive) | > 100 µM (inactive) | > 100 µM (inactive) | > 100 µM (inactive) | > 100 µM (inactive) | > 100 µM (inactive) |  | > 100 µM (inactive)
12 | Cc1nc(SCC(N)=O)c2sc(=S)n(-c3ccccc3)c2n1 | > 10 µM (inactive) | > 10 µM (inactive) | > 10 µM (inactive) | > 10 µM (inactive) | > 10 µM (inactive) | > 10 µM (inactive) | > 10 µM (inactive) | > 10 µM (inactive) | > 10 µM (inactive) | > 10 µM (inactive) | > 10 µM (inactive) | > 10 | > 10 µM (inactive) |  |  | > 10 µM (inactive) | > 10 µM (inactive) | > 10 µM (inactive) | > 10 µM (inactive) | > 10 µM (inactive)
13 | COc1cc(C(=O)O)c([N+](=O)[O-])c(OC)c1OC | > 100 µM (inactive) | > 100 µM (inactive) | > 100 µM (inactive) | > 100 µM (inactive) | > 100 µM (inactive) | > 100 µM (inactive) | > 100 µM (inactive) | 63.2 µM (inactive) | > 100 µM (inactive) | > 100 µM (inactive) | > 100 µM (inactive) | > 100 | > 100 µM (inactive) | > 100 µM (inactive) | > 100 µM (inactive) |  | > 100 µM (inactive) | > 100 µM (inactive) |  | > 100 µM (inactive)
14 | C=C(C)[C@@]1(O)CCCC[C@@H]1CC(Sc1ccccc1)Sc1ccccc1 | 16.5 µM (inactive) | 17.8 µM (inactive) | 20 µM (inactive) | 12.6 µM (inactive) | 18.5 µM (inactive) | 12.8 µM (inactive) | 14.2 µM (inactive) | 16.3 µM (inactive) | 17.1 µM (inactive) | 37.6 µM (inactive) | 11.3 µM (inactive) | 15 | 18.1 µM (inactive) | 16 µM (inactive) |  | 14.2 µM (inactive) | 17.9 µM (inactive) |  | 15.2 µM (inactive) | 15.7 µM (inactive)
15 | Cc1cn(C2CC(N/C(=N/C#N)NCC3OC(n4cnc5c(N)ncnc54)CC3O)C(CO)O2)c(=O)[nH]c1=O (centres undefined) | > 100 µM (inactive) | > 100 µM (inactive) | > 100 µM (inactive) | > 100 µM (inactive) | > 100 µM (inactive) | > 100 µM (inactive) | > 100 µM (inactive) | > 100 µM (inactive) | > 100 µM (inactive) | > 100 µM (inactive) |  | > 100 | > 100 µM (inactive) | > 100 µM (inactive) |  | > 100 µM (inactive) | > 100 µM (inactive) | > 100 µM (inactive) | 77.6 µM (inactive) | > 100 µM (inactive)
